These results are taken from US9795626B2, “Cancer therapy using miRNAs” (THE UNIVERSITY OF WESTERN AUSTRALIA, priority 2012, dated 2017).

The test system of assay [1] is melanoma cell lines (SK-MEL-28, WM266-4, MM96L and A2058). As to the kind of experiment: Drug sensitivity assay (cell viability after 4 days of drug). The format is cell-based. As to conditions: range over the melanoma cell lines.
Assay [2] concerns A2058 melanoma cells. As to the kind of experiment: Cell viability assay (MTS) after miRNA transfection, with or without drug; Bliss synergy analysis. Particulars: for EObs: observed fractional inhibition of the combination; for EObs/EBliss: >1 = synergistic; for EBliss: fractional inhibition expected if exactly additive; for cell viability, combination of miR-7-5p and drug compared to miR-NC: miR-7-5p 5 nM, suboptimal dose of drug (below the IC50) added 3 days post-transfection, 4 further days; for synergy of combination with miR-7-5p (Bliss additivism model): observed fractional inhibition greater than calculated additive inhibition.
Procedure: (§1) Cells were seeded in 96-well plates at a density of 2.5×10^3 cells per well and transfected with miRNA precursor molecules as above. Cell viability was measured 5 days after transfection using CellTitre 96 Aqueous One Solution Cell Proliferation Assay Kit (MTS assay) and a FLUOstar OPTIMA microplate reader. For synergy analysis between drugs and miR-7-5p, cells were plated as above and drug or DMSO was added 3 days after transfection with miR-7-5p or miR-NC for 4 days, at which time cell viability was measured (7 days after transfection).
(§2) Statistical significance was calculated using Student's t test (one-tailed, unpaired) and the level of significance was set at p<0.05. Drug sensitivity (IC50) was calculated using GraphPad Software (GraphPad Prism, version 5.04). The Bliss additivism model was used for synergy analysis. […] Here, Ebliss is the fractional inhibition expected if the combination of miR-7-5p and drug B was exactly additive. If the experimentally measured fractional inhibition is greater than Ebliss, the combination is synergistic.

The subject of the next assay is SK-MEL-28 melanoma cells. The description is as above. As to conditions: for EObs: observed fractional inhibition of the combination; for EObs/EBliss: >1 = synergistic; for EBliss: fractional inhibition expected if exactly additive.
In another assay the test system is MM96L melanoma cells. The description is as above. As to conditions: for EObs: observed fractional inhibition of the combination.
In assay [3] the test system is WM266-4 melanoma cells. As to the kind of experiment: Drug sensitivity assay (cell viability after 4 days of drug). The format is cell-based. As to conditions: Homo sapiens, WM 266-4, 96 h, WM266-4 (wild type p53).
The test system of assay [4] is WM266-4 melanoma cells. As to the kind of experiment: Cell viability assay (MTS) after miRNA transfection, with or without drug; Bliss synergy analysis. Particulars: for EObs: observed fractional inhibition of the combination.
Procedure: as §1, §2
The test system of assay [5] is A2058 melanoma cells. As to the kind of experiment: Drug sensitivity assay (cell viability after 4 days of drug). The format is cell-based. As to conditions: Homo sapiens, 96 h, A2058 (wild type p53).
Assay [6] concerns breast cancer cell line MCF-7. The assay is described as above. The format is cell-based. Particulars: MCF-7 (positive control).
A further assay concerns Akt. As to the kind of experiment: IGF-1-induced activation of Akt signaling under NVP-AEW541 (data not shown). The format is cell-based.
For the next assay, the system named is ERK 1/2. As to the kind of experiment: IGF-1-induced activation of ERK 1/2 signaling under NVP-AEW541 (data not shown). The format is cell-based.
Where [7] appears, read: [miR-7-5p] 5 nM + [drug] 100 nM.
[8] abbreviates: [miR-7-5p] 5 nM + [drug] 150 μM.
Setting [9] is: [miR-7-5p] 5 nM + [drug] 5 μM, >1 = synergistic.
The mark [10] stands for this setting: [miR-7-5p] 5 nM + [drug] 5 μM, fractional inhibition expected if exactly additive.

SMILES strings stand for the structures. Values joined by “and” are separate entries in the source; they are usually repeats but may differ in a detail not shown here. Equal values may be shown once.

Procedure for MM96L melanoma cells: as §1, §2
Procedure for SK-MEL-28 melanoma cells: as §1, §2

For the compound `CCCS(=O)(=O)Nc1ccc(F)c(C(=O)c2c[nH]c3ncc(-c4ccc(Cl)cc4)cc23)c1F` [PLX4032, vemurafenib], the IC50 (as a rule, the midpoint of a concentration-inhibition curve) in assay [1] (96 h) was 0.08 to 0.23 µM. For the same compound, the EObs is 0.855 and 0.853 and 0.790 in the assay with A2058 melanoma cells [2] (setting [7]); 0.661 with SK-MEL-28 melanoma cells ([miR-7-5p] 5 nM + [drug] 50 nM); 0.773 with SK-MEL-28 melanoma cells (setting [7]); 0.972 and 0.803 and 0.547 in the assay with MM96L melanoma cells ([miR-7-5p] 2.5 nM^ + [drug] 50 nM).
Take `Cn1nnc2c(C(N)=O)ncn2c1=O` [TMZ, temozolomide]: the IC50 in the assay with WM266-4 melanoma cells [3] was found to be 73.1 µM; in the assay with A2058 melanoma cells [5] it was 167 µM. The EObs was 0.748 and 0.732 in the assay on WM266-4 melanoma cells [4] ([miR-7-5p] 5 nM + [drug] 50 μM); 0.680 in the assay with A2058 melanoma cells [2] ([miR-7-5p] 5 nM + [drug] 50 μM); 0.811 and 0.633 in the assay with A2058 melanoma cells [2] (setting [8]); 0.747 in the assay on MM96L melanoma cells (setting [8]); 0.864 and 0.878 with MM96L melanoma cells ([miR-7-5p] 5 nM + [drug] 500 μM).
For `Nc1ncnc2c1c(-c1cccc(OCc3ccccc3)c1)cn2C1CC(CN2CCC2)C1` (centres unmarked) [NVP-AEW541], the IC50 was 1.5 µM in assay [6] and 8.27 to 25.1 µM in [1]. The EObs/EBliss was 1.06 with WM266-4 melanoma cells [4] (setting [9]); 1.10 and 1.20 in the assay on A2058 melanoma cells [2] ([miR-7-5p] 5 nM + [drug] 5 μM); 1.24 and 1.17 with SK-MEL-28 melanoma cells ([miR-7-5p] 5 nM + [drug] 5 μM); 1.06 in the assay with MM96L melanoma cells (setting [9]). Moreover, the EBliss with WM266-4 melanoma cells [4] (setting [10]) was 0.715; in the assay with A2058 melanoma cells [2] ([miR-7-5p] 5 nM + [drug] 5 μM) it was 0.769 and 0.720; in the assay on SK-MEL-28 melanoma cells ([miR-7-5p] 5 nM + [drug] 5 μM) it was 0.474 and 0.265; in the assay with MM96L melanoma cells (setting [10]), 0.515. Further, the EObs with WM266-4 melanoma cells [4] ([miR-7-5p] 5 nM + [drug] 5 μM) was 0.757; in the assay on A2058 melanoma cells [2] ([miR-7-5p] 5 nM + [drug] 5 μM), 0.846 and 0.866; with SK-MEL-28 melanoma cells ([miR-7-5p] 5 nM + [drug] 5 μM) it was 0.588 and 0.309; in the assay on MM96L melanoma cells ([miR-7-5p] 5 nM + [drug] 5 μM), 0.547. In addition, the “cell viability, combination of miR-7-5p and drug compared to miR-NC” value in the assay with A2058 melanoma cells [2] is listed as “significant reduction”. Also, the “synergy of combination with miR-7-5p (Bliss additivism model)” value with A2058 melanoma cells [2] was “synergistic”. Moreover, the “IGF-1-induced activation of Akt signaling pathway” value with Akt (MCF-7 breast cancer cells) is recorded as “attenuated”. For the same compound, the “Akt activity (IGF-1-induced)” value in the assay on Akt (melanoma cell lines) was “abrogated”. Further, the “IGF-1-induced activation of ERK 1/2 signaling pathway” value in the assay on ERK 1/2 (MCF-7 breast cancer cells) is recorded as “attenuated”. Besides, in the assay with ERK 1/2 (melanoma cell lines), the “ERK 1/2 activity (IGF-1-induced)” value is given as “persistence of ERK 1/2 activity”.
In assay [1] (96 h), `COc1cc([C@@H]2c3cc4c(cc3[C@H](O)[C@H]3COC(=O)[C@@H]23)OCO4)cc(OC)c1OC` [PPP, picropodophyllin] returned an IC50 of 0.15 to 0.3 µM. Besides, in the assay on A2058 melanoma cells [2] (setting [7]), the EObs/EBliss was 1.48 and 1.03 and 1.18; the EBliss was 0.447 and 0.684 and 0.420; the EObs was 0.663 and 0.704 and 0.496. In the assay with A2058 melanoma cells [2], the “cell viability, combination of miR-7-5p and drug compared to miR-NC” value was “significant reduction”; the “synergy of combination with miR-7-5p (Bliss additivism model)” value is “synergistic”. Also, in the assay on SK-MEL-28 melanoma cells (setting [7]), the EObs/EBliss is 1.80 and 1.30; the EBliss was 0.292 and 0.391; the EObs was 0.526 and 0.508.
